Values joined by “and” are separate entries in the source; they are usually repeats but may differ in a detail not shown here. Identical values can stand only once. Toxic doses and inconclusive results are not listed.

The test system of this experiment is P388 leukemia ip, CD2F1 mice, survival T/C. Description: NCI In Vivo Anticancer Drug Screen. Data for tumor model P388 Leukemia (intraperitoneal) in CD2F1 (CDF1) mice. The note with it: endpoint: median survival time, higher = longer survival. The procedure, abridged: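 Mice carrying the transplanted tumor received test compound or vehicle. Survival was recorded in each group, and the value is the treated-group measurement divided by that of the vehicle-treated control group.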

The mark [1] stands for this setting: dose: 50.0 mg/kg/injection, schedule: Q01DX009 (ip), vehicle: saline with Tween-80.
The mark [2] stands for this setting: dose: 100.0 mg/kg/injection, schedule: Q01DX009 (ip), vehicle: saline with Tween-80.
Setting [3] is: dose: 100.0 mg/kg/injection, schedule: Q04DX003 (ip), vehicle: saline with Tween-80.
Where [4] appears, read: dose: 200.0 mg/kg/injection, schedule: Q01DX009 (ip), vehicle: saline with Tween-80.
[5] abbreviates: dose: 200.0 mg/kg/injection, schedule: Q04DX003 (ip), vehicle: saline with Tween-80.
The mark [6] stands for this setting: dose: 50.0 mg/kg/injection, schedule: Q01DX009 (ip), vehicle: Klucel (hydroxypropylcellulose) (HPC).
Setting [7] is: dose: 100.0 mg/kg/injection, schedule: Q01DX009 (ip), vehicle: Klucel (hydroxypropylcellulose) (HPC).
The mark [8] stands for this setting: dose: 200.0 mg/kg/injection, schedule: Q01DX009 (ip), vehicle: Klucel (hydroxypropylcellulose) (HPC).
[9] abbreviates: dose: 12.5 mg/kg/injection, schedule: Q01DX009 (ip), vehicle: saline with Tween-80.
The mark [10] stands for this setting: dose: 25.0 mg/kg/injection, schedule: Q01DX009 (ip), vehicle: saline with Tween-80.
Setting [11] is: dose: 50.0 mg/kg/injection, schedule: Q01DX009 (ip), vehicle: saline.
Setting [12] is: dose: 60.0 mg/kg/injection, schedule: Q01DX005 (ip), vehicle: Klucel (hydroxypropylcellulose) (HPC).
The mark [13] stands for this setting: dose: 120.0 mg/kg/injection, schedule: Q01DX005 (ip), vehicle: Klucel (hydroxypropylcellulose) (HPC).
[14] abbreviates: dose: 240.0 mg/kg/injection, schedule: Q01DX005 (ip), vehicle: Klucel (hydroxypropylcellulose) (HPC).
[15] abbreviates: dose: 100.0 mg/kg/injection, schedule: Q04DX003 (ip), vehicle: saline.
Where [16] appears, read: dose: 200.0 mg/kg/injection, schedule: Q04DX003 (ip), vehicle: saline.
Where [17] appears, read: dose: 400.0 mg/kg/injection, schedule: Q04DX003 (ip), vehicle: saline.

For `COc1cccc2c1C(=O)c1c(cc3c(c1O)[C@@H](OC1CC(NC(=O)c4ccc(N=[N+]=[N-])cc4)C(O)C(C)O1)C[C@](O)(C(C)=O)C3)C2=O` (stereo partly drawn), the T/C was 100 % of control (dose: 6.25 mg/kg/injection, schedule: Q04DX003 (ip), vehicle: olive oil, sesame oil, peanut oil); 97 % of control (dose: 12.5 mg/kg/injection, schedule: Q04DX003 (ip), vehicle: olive oil, sesame oil, peanut oil); 100 % of control (dose: 25.0 mg/kg/injection, schedule: Q04DX003 (ip), vehicle: olive oil, sesame oil, peanut oil); 112 % of control (dose: 50.0 mg/kg/injection, schedule: Q04DX003 (ip), vehicle: olive oil, sesame oil, peanut oil).
For the compound `CCOC(=O)c1ccc(N(CCOS(C)(=O)=O)CCOS(C)(=O)=O)cc1`, the T/C is 190 % of control under setting [1]; 215 % of control under setting [2]; 154 % of control under setting [3]; 186 % of control (dose: 132.0 mg/kg/injection, schedule: Q04DX003 (ip), vehicle: saline with Tween-80); 95 % of control under setting [4]; 150 % of control and 195 % of control under setting [5]. For the same compound, for the setting “dose: 300.0 mg/kg/injection, schedule: Q04DX003 (ip), vehicle: saline with Tween-80”, the T/C is 172 % of control.
Take `O=C(NCc1ccccc1)C1C(=O)C(=O)N(Cc2ccccc2)C1=O` (stereo not drawn): the T/C by setting is: under setting [6], 105 % of control; under setting [7], 100 % of control; under setting [8], 107 % of control.
With `O=C(O)c1c[nH]c2cc([N+](=O)[O-])ccc2c1=O`, the T/C by setting is: under setting [9], 94 % of control; under setting [10], 88 % of control; under setting [1], 87 % of control; under setting [11], 104 % of control.
`CCOC(=O)C1Cc2c([nH]c(=O)[nH]c2=O)OC1c1cccc(Cl)c1` (stereo not drawn): the T/C reads like this: (dose: 3.12 mg/kg/injection, schedule: Q01DX009 (ip), vehicle: saline with Tween-80) 94 % of control; (dose: 6.25 mg/kg/injection, schedule: Q01DX009 (ip), vehicle: saline with Tween-80) 93 % of control; under setting [9], 96 % of control; under setting [10], 100 % of control.
As for `O=CNCc1ccc(S(=O)(=O)F)cc1`, the T/C is 93 % of control (dose: 12.5 mg/kg/injection, schedule: Q01DX009 (ip), vehicle: other); 92 % of control (dose: 25.0 mg/kg/injection, schedule: Q01DX009 (ip), vehicle: other); 99 % of control (dose: 50.0 mg/kg/injection, schedule: Q01DX009 (ip), vehicle: other); 100 % of control (dose: 100.0 mg/kg/injection, schedule: Q01DX009 (ip), vehicle: other).
On to `O=C(O)CSCc1cc2c3ccccc3sc2c2ccccc12`, for which the T/C by setting is: under setting [12], 100 % of control; under setting [13], 93 % of control; under setting [14], 96 % of control.
Take `CCCCCCC(/C=C/c1ccc(Cl)c(Cl)c1)=N\NC(=O)C[n+]1ccccc1`: the T/C is, setting by setting: under setting [11], 99 % of control; (dose: 100.0 mg/kg/injection, schedule: Q01DX009 (ip), vehicle: saline) 101 % of control; (dose: 200.0 mg/kg/injection, schedule: Q01DX009 (ip), vehicle: saline) 101 % of control.
`CCN(CC)CCOC(=O)c1ccc(N=C/C=C/C(C#N)=C/NOC)cc1`: the T/C is, setting by setting: under setting [1], 113 % of control; under setting [2], 101 % of control; under setting [4], 103 % of control.
With `CCOC(=O)c1c(C)c2c(n1Cc1ccccc1)CCCC2=O`, the T/C by setting is: (dose: 100.0 mg/kg/injection, schedule: Q04DX003 (ip), vehicle: Klucel (hydroxypropylcellulose) (HPC)) 99 % of control; (dose: 200.0 mg/kg/injection, schedule: Q04DX003 (ip), vehicle: Klucel (hydroxypropylcellulose) (HPC)) 97 % of control; (dose: 400.0 mg/kg/injection, schedule: Q04DX003 (ip), vehicle: Klucel (hydroxypropylcellulose) (HPC)) 98 % of control.
On to `O=[N+]([O-])c1cnn(Cn2cc([N+](=O)[O-])cn2)c1`, for which the T/C by setting is: under setting [3], 109 % of control; under setting [5], 116 % of control; (dose: 400.0 mg/kg/injection, schedule: Q04DX003 (ip), vehicle: saline with Tween-80) 120 % of control.
For the compound `CON1C(=O)c2ccccc2C1=O`, the T/C is 99 % of control under setting [2]; 106 % of control under setting [4]; 106 % of control (dose: 400.0 mg/kg/injection, schedule: Q01DX009 (ip), vehicle: saline with Tween-80).
On to `CC(CCC(=O)O)(c1ccc(OC(=O)Nc2ccc(Br)cc2)cc1)c1ccc(OC(=O)Nc2ccc(Br)cc2)cc1`, for which the T/C (dose: 50.0 mg/kg/injection, schedule: Q01DX005 (ip), vehicle: saline with Tween-80) is 102 % of control; the T/C (dose: 100.0 mg/kg/injection, schedule: Q01DX005 (ip), vehicle: saline with Tween-80) is 97 % of control; the T/C (dose: 200.0 mg/kg/injection, schedule: Q01DX005 (ip), vehicle: saline with Tween-80) was 100 % of control.
For `Cc1c(C(=O)c2ccc3c(c2)OCO3)ccc2c1OCO2`, the T/C is 105 % of control (dose: 50.0 mg/kg/injection, schedule: Q01DX005 (ip), vehicle: Klucel (hydroxypropylcellulose) (HPC)); 105 % of control (dose: 100.0 mg/kg/injection, schedule: Q01DX005 (ip), vehicle: Klucel (hydroxypropylcellulose) (HPC)); 98 % of control (dose: 200.0 mg/kg/injection, schedule: Q01DX005 (ip), vehicle: Klucel (hydroxypropylcellulose) (HPC)).
As for `COC(=O)/C=C/c1cc(=O)nc2sc3ccccc3n12`, the T/C runs as follows: under setting [12], 93 % of control; under setting [13], 93 % of control; under setting [14], 94 % of control.
For `Cc1nc2sc3c(c2c(=N)n1N)CCCC3`, the T/C reads like this: (dose: 12.5 mg/kg/injection, schedule: Q01DX001 (ip), vehicle: Klucel (hydroxypropylcellulose) (HPC)) 103 % of control; (dose: 25.0 mg/kg/injection, schedule: Q01DX001 (ip), vehicle: Klucel (hydroxypropylcellulose) (HPC)) 97 % of control.
On to `O=C1C=CC(=O)N1c1ccc(Cl)cc1`, for which the T/C is, setting by setting: (dose: 1.0 mg/kg/injection, schedule: Q01DX009 (ip), vehicle: Klucel (hydroxypropylcellulose) (HPC)) 107 % of control; (dose: 1.25 mg/kg/injection, schedule: Q01DX009 (ip), vehicle: Klucel (hydroxypropylcellulose) (HPC)) 93 % of control; (dose: 2.0 mg/kg/injection, schedule: Q01DX009 (ip), vehicle: Klucel (hydroxypropylcellulose) (HPC)) 104 % of control; (dose: 2.5 mg/kg/injection, schedule: Q01DX009 (ip), vehicle: Klucel (hydroxypropylcellulose) (HPC)) 96 % of control; (dose: 4.0 mg/kg/injection, schedule: Q01DX009 (ip), vehicle: Klucel (hydroxypropylcellulose) (HPC)) 104 % of control; (dose: 5.0 mg/kg/injection, schedule: Q01DX009 (ip), vehicle: Klucel (hydroxypropylcellulose) (HPC)) 89 % of control. The T/C runs as follows: (dose: 8.0 mg/kg/injection, schedule: Q01DX009 (ip), vehicle: Klucel (hydroxypropylcellulose) (HPC)) 102 % of control; (dose: 10.0 mg/kg/injection, schedule: Q01DX009 (ip), vehicle: Klucel (hydroxypropylcellulose) (HPC)) 93 % of control.
Regarding `Cn1c2nc(-[n+]3ccc(-c4ccccc4)cc3)nc-2c([O-])n(C)c1=O`, the T/C by setting is: under setting [15], 99 % of control; under setting [16], 89 % of control.
As for `COc1cc(Br)c(/C=C/[N+](=O)[O-])cc1OC`, the T/C under setting [3] is 116 % of control.
With `Cn1c2nc(-[n+]3ccccc3)nc-2c([O-])n(C)c1=O`, the T/C under setting [15] is 94 % of control, the T/C under setting [16] was 100 % of control and the T/C under setting [17] is 100 % of control.
In the case of `O=C(O)c1c[nH]c2cc(OCCOc3ccc4ccccc4c3)ccc2c1=O`, the T/C reads like this: under setting [15], 99 % of control; under setting [16], 88 % of control; under setting [17], 94 % of control.
For the compound `CC1CCOn2c1nc1ccccc1c2=O` (stereo not drawn), the T/C is, setting by setting: under setting [6], 97 % of control; under setting [7], 102 % of control; under setting [8], 113 % of control.
With `CSC1=NNC(C)(C)C(N)=N1`, the T/C was 98 % of control (dose: 100.0 mg/kg/injection, schedule: Q01DX001 (ip), vehicle: saline); 97 % of control (dose: 200.0 mg/kg/injection, schedule: Q01DX001 (ip), vehicle: saline); 100 % of control (dose: 400.0 mg/kg/injection, schedule: Q01DX001 (ip), vehicle: saline).

For the origin of these results see PubChem BioAssay AID330 (DTP/NCI, 2004).
